Eleven molecules from patent EP4603105A1, “PHARMACEUTICAL COMPOSITION CONTAINING CYCLIC COMPOUND HAVING SELECTIVE KRAS INHIBITORY EFFECT AGAINST HRAS AND NRAS” (CHUGAI SEIYAKU KABUSHIKI KAISHA, priority 2022, dated 2024) can be followed below.

What is called Kd is the concentration at which binding is half-saturated. Low values mean higher affinity, high ones lower affinity. What is called IC50 is the concentration needed to halve the response being measured. High values mean a need for much substance, low ones inhibition by little substance.

For experiment [1], the target named is GDP-bound KRAS wild-type protein (Homo sapiens, UniProt P01116). The experiment can be described thus: Binding to KRAS by surface plasmon resonance (SPR), dissociation constant KD. The following applies: Single Cycle Kinetics. A digest of the protocol:
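Compound binding is evaluated by SPR single-cycle kinetics, with concentrations added intermittently from low to high for 75 s each. Target surfaces carry GDP-loaded biotinylated Avi-RAS at about 100–300 RU, regenerated after each cycle; temperature 30°C. A 1:1 binding model gives KD.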
Background: SPR reads the build-up and loss of mass on a sensor chip optically.

For experiment [2], the target named is GDP-bound NRAS wild-type protein (Homo sapiens, UniProt P01111). Nature of the experiment: Binding to NRAS by surface plasmon resonance (SPR), KD and KD ratio to KRAS. The following applies: ratio of KD for GDP-bound NRAS wild-type protein to KD for KRAS. A digest of the protocol:
(§1)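 Running buffer contained 10 µM GDP and 10 mM MgCl2 to keep RAS in the GDP state, with 4% DMSO at pH 7.4. Compounds were flowed at 100 µL/min in 75 s steps of rising concentration over captured biotin-Avi RAS at 30°C. Sensorgrams were fitted 1:1 for KD.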

A further experiment addresses HRAS wild-type protein (Homo sapiens, UniProt P01112). The experiment can be described thus: Binding to HRAS by surface plasmon resonance (SPR), KD and KD ratio to KRAS. The following applies: ratio of KD for HRAS wild-type protein to KD for KRAS. In outline:
as §1

Experiment [3] has as its system human lung cancer strain NCI-H441. The experiment is classed as cell-based. A digest of the protocol:
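Step one: dispense the test compound in serial DMSO dilutions. Step three: add the reagent and measure […].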

Sequence of GDP-bound KRAS wild-type protein (P01116 1-188 isoform P01116-2): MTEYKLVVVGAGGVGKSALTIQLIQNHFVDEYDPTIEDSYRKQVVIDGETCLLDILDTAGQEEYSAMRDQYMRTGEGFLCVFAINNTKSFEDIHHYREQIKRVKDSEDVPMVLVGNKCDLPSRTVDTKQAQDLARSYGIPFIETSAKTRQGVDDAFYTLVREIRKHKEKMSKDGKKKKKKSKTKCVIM
Sequence of GDP-bound NRAS wild-type protein (P01111 whole entry): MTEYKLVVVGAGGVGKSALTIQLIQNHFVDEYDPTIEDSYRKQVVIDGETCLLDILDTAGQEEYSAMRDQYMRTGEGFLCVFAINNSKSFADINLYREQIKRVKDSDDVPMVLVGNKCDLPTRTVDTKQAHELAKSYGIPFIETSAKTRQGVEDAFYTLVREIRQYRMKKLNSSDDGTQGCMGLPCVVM
Sequence of HRAS wild-type protein (P01112 whole entry): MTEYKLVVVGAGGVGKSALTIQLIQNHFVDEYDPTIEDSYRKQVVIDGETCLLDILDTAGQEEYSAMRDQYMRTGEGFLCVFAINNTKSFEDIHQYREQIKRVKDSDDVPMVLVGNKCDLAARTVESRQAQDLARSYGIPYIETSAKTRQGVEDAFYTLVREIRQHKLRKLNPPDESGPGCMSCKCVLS

In experiment [1], `CCO[C@@H]1C[C@H]2C(=O)NC3(CCCC3)C(=O)N(C)[C@@H](C3CCCC3)C(=O)N(C)[C@H](C(=O)N3CCOCC3)CC(=O)N(C)[C@@H](CC(C)C)C(=O)N[C@@H]([C@@H](C)CC)C(=O)N(C)CC(=O)N(C)[C@H]3CCCCCN(C3=O)[C@@H](Cc3ccc(F)cc3)C(=O)N(C)CC(=O)N[C@@H](CCc3ccc(C(F)(F)F)c(Cl)c3)C(=O)N2C1` [PP0965] yielded a Kd of 0.57 nM. The “NRAS /KRAS” value in experiment [2] was “B (a compound having 3 or more and less than 10 is denoted as B)”. In addition, the “HRAS /KRAS” value at HRAS wild-type protein was “B (a compound having 3 or more and less than 10 is denoted as B)”. This molecule also registered an IC50 in experiment [3] of 48.8 nM.

As for `CCO[C@@H]1C[C@H]2C(=O)NC3(CCC3)C(=O)N(C)[C@@H](C3CCCC3)C(=O)N(C)[C@H](C(=O)N3CCOCC3)CC(=O)N(C)[C@@H](CC(C)C)C(=O)N[C@@H]([C@@H](C)CC)C(=O)N(C)CC(=O)N(C)[C@H]3CCCCCN(C3=O)[C@@H](Cc3ccc(F)cc3)C(=O)N(C)CC(=O)N[C@@H](CCc3ccc(C(F)(F)F)c(Cl)c3)C(=O)N2C1` [PP0968], the affinity in experiment [1], expressed as Kd, was 0.32 nM. The “NRAS /KRAS” value in experiment [2] is “B (a compound having 3 or more and less than 10 is denoted as B)”. Moreover, the “HRAS /KRAS” value on HRAS wild-type protein was “B (a compound having 3 or more and less than 10 is denoted as B)”. In experiment [3], this molecule came in with an IC50 of 38.8 nM.

In experiment [1], `CC[C@H](C)[C@@H]1NC(=O)[C@H](CC(C)C)N(C)C(=O)C[C@@H](C(=O)N2CCOCC2)N(C)C(=O)[C@H](C2CCCC2)N(C)C(=O)C2(CCC2)NC(=O)[C@@H]2CC(F)(F)CN2C(=O)[C@H](CCc2ccc(C(F)(F)F)c(Cl)c2)NC(=O)CN(C)C(=O)[C@H](Cc2ccc(F)cc2)N2CCCCC[C@@H](C2=O)N(C)C(=O)CN(C)C1=O` [PP0969] returned a Kd of 0.12 nM. For the same molecule, the “NRAS /KRAS” value in experiment [2] was “B (a compound having 3 or more and less than 10 is denoted as B)”. For the same molecule, on HRAS wild-type protein, the “HRAS /KRAS” value is “B (a compound having 3 or more and less than 10 is denoted as B)”. Also, half-maximal inhibition in experiment [3] (IC50) was put at 13.6 nM.

In the case of `CC[C@H](C)[C@@H]1NC(=O)[C@H](CC(C)C)N(C)C(=O)C[C@@H](C(=O)N(C)C)N(C)C(=O)[C@H](C2CCCC2)N(C)C(=O)C2(CCCC2)NC(=O)[C@@H]2CCCN2C(=O)[C@H](CCc2ccc(C(F)(F)F)c(Cl)c2)NC(=O)CN(C)C(=O)[C@H](Cc2ccc(F)cc2)N2CCCCC[C@@H](C2=O)N(C)C(=O)CN(C)C1=O` [PP0971], in experiment [1], the affinity, expressed as Kd, was 0.34 nM. Also, in experiment [2], the “NRAS /KRAS” value is “B (a compound having 3 or more and less than 10 is denoted as B)”. In addition, the “HRAS /KRAS” value at HRAS wild-type protein is “B (a compound having 3 or more and less than 10 is denoted as B)”. The molecule further gave an IC50 in experiment [3] of 54 nM.

Turning to `CCO[C@@H]1C[C@H]2C(=O)NC3(CCC3)C(=O)N(C)[C@@H](C3CCCC3)C(=O)N(C)[C@H](C(=O)N(C)C)CC(=O)N(C)[C@@H](CC(C)C)C(=O)N[C@@H]([C@@H](C)CC)C(=O)N(C)CC(=O)N(C)[C@H]3CCCCCN(C3=O)[C@@H](Cc3ccc(F)cc3)C(=O)N(C)CC(=O)N[C@@H](CCc3ccc(C(F)(F)F)c(Cl)c3)C(=O)N2C1` [PP0972], the Kd in experiment [1] is 0.15 nM. Besides, in experiment [2], the “NRAS /KRAS” value is “B (a compound having 3 or more and less than 10 is denoted as B)”. Moreover, the “HRAS /KRAS” value on HRAS wild-type protein was “B (a compound having 3 or more and less than 10 is denoted as B)”. This molecule also registered an IC50 in experiment [3] of 15.8 nM.

Molecule `CC[C@H](C)[C@@H]1NC(=O)[C@H](CC(C)C)N(C)C(=O)C[C@@H](C(=O)N2CCOCC2)N(C)C(=O)[C@H](C2CCCC2)N(C)C(=O)C2(CCC2)NC(=O)[C@@H]2C[C@@H](OCC3CC3)CN2C(=O)[C@H](CCc2cc(F)c(C(F)(F)F)c(F)c2)NC(=O)CN(C)C(=O)[C@H](Cc2ccc(C(F)(F)F)cc2)N2CCCC[C@@H](C2=O)N(C)C(=O)CN(C)C1=O` [PP1000] displayed a Kd in experiment [1] of 0.039 nM. For the same molecule, the “NRAS /KRAS” value in experiment [2] was “B (a compound having 3 or more and less than 10 is denoted as B)”. The “HRAS /KRAS” value at HRAS wild-type protein was “B (a compound having 3 or more and less than 10 is denoted as B)”. In experiment [3], this molecule yielded an IC50 of 7.5 nM.

Molecule `CCCCO[C@H]1CCN2C(=O)[C@H](CCc3cc(F)c(C(F)(F)F)c(F)c3)NC(=O)CN(C)C(=O)[C@H](Cc3ccc(C(F)(F)F)cc3)N3CCCCC[C@@H](C3=O)N(C)C(=O)CN(C)C(=O)[C@H]([C@@H](C)CC)NC(=O)[C@H](CC(C)C)N(C)C(=O)C[C@@H](C(=O)N3CCOCC3)N(C)C(=O)[C@H](C3CCCC3)N(C)C(=O)C3(CCC3)NC(=O)[C@H]12` [PP1009] registered a Kd in experiment [1] of 2 nM. For the same molecule, the “NRAS /KRAS” value in experiment [2] is “B (a compound having 3 or more and less than 10 is denoted as B)”. Besides, the “HRAS /KRAS” value at HRAS wild-type protein was “B (a compound having 3 or more and less than 10 is denoted as B)”. This molecule came in with a 50% inhibitory concentration (IC50) in experiment [3] of 195 nM.

The molecule `CC[C@H](C)[C@@H]1NC(=O)[C@H](CC(C)C)N(C)C(=O)C[C@@H](C(=O)N2CCOCC2)N(C)C(=O)[C@H](C2CCCC2)N(C)C(=O)C2(CCC2)NC(=O)[C@@H]2[C@@H](OCC3CCCC3)CCN2C(=O)[C@H](CCc2cc(F)c(C(F)(F)F)c(F)c2)NC(=O)CN(C)C(=O)[C@H](Cc2ccc(C(F)(F)F)cc2)N2CCCCC[C@@H](C2=O)N(C)C(=O)CN(C)C1=O` [PP1011] came in with a Kd in experiment [1] of 3.7 nM. In addition, the “NRAS /KRAS” value in experiment [2] was “A (a compound having 10 or more and less than 20 is denoted as A)”. In addition, on HRAS wild-type protein, the “HRAS /KRAS” value is “B (a compound having 3 or more and less than 10 is denoted as B)”. In experiment [3], this molecule showed a 50% inhibitory concentration (IC50) of 314 nM.

In experiment [1], `CC[C@H](C)[C@@H]1NC(=O)[C@H](CC(C)C)N(C)C(=O)C[C@@H](C(=O)N2CCOCC2)N(C)C(=O)[C@H](C2CCCC2)N(C)C(=O)C2(CCC2)NC(=O)[C@@H]2C[C@@H](OCC3CC3)CN2C(=O)[C@H](CCc2cc(F)c(C(F)(F)F)c(F)c2)NC(=O)CN(C)C(=O)[C@H](Cc2ccc(C(F)(F)F)cc2)N2CCCC[C@@H](C2=O)N(C)C(=O)CN(C)C1=O` [PP1014] showed a Kd of 1.1 nM. Further, the “NRAS /KRAS” value in experiment [2] was “C (A compound having a KD ratio of 0.1 or more and less than 3 is denoted as C)”. Further, on HRAS wild-type protein, the “HRAS /KRAS” value is “C (A compound having a KD ratio of 0.1 or more and less than 3 is denoted as C)”. The same molecule showed an IC50 in experiment [3] of 114 nM.

In experiment [1], `CCO[C@@H]1C[C@H]2C(=O)NC3(CCC3)C(=O)N(C)[C@@H](C3CCCC3)C(=O)N(C)[C@H](C(=O)N(C)C)CC(=O)N(C)[C@@H](CC(C)C)C(=O)N[C@@H]([C@@H](C)CC)C(=O)N(C)CC(=O)N(C)[C@H]3C[C@@H](C)CCN(C3=O)[C@@H](Cc3ccc(C(F)(F)F)cc3)C(=O)N(C)CC(=O)N[C@@H](CCc3cc(F)c(C(F)(F)F)c(F)c3)C(=O)N2C1` [PP1018] yielded a dissociation constant Kd of 0.017 nM. The “NRAS /KRAS” value in experiment [2] was “C (A compound having a KD ratio of 0.1 or more and less than 3 is denoted as C)”. Moreover, on HRAS wild-type protein, the “HRAS /KRAS” value was “B (a compound having 3 or more and less than 10 is denoted as B)”. In experiment [3], half-maximal inhibition (IC50) was put at 6.8 nM.

`CCO[C@@H]1C[C@H]2C(=O)NC3(CCC3)C(=O)N(C)[C@@H](C3CCCC3)C(=O)N(C)[C@H](C(=O)N(C)C)CC(=O)N(C)[C@@H](CC(C)C)C(=O)N[C@@H]([C@@H](C)CC)C(=O)N(C)CC(=O)N(C)[C@H]3CC(C)=CCN(C3=O)[C@@H](Cc3ccc(C(F)(F)F)cc3)C(=O)N(C)CC(=O)N[C@@H](CCc3cc(F)c(C(F)(F)F)c(F)c3)C(=O)N2C1` [PP1032] had a dissociation constant Kd in experiment [1] of 0.38 nM. Moreover, the “NRAS /KRAS” value in experiment [2] was “C (A compound having a KD ratio of 0.1 or more and less than 3 is denoted as C)”. In addition, the “HRAS /KRAS” value at HRAS wild-type protein was “C (A compound having a KD ratio of 0.1 or more and less than 3 is denoted as C)”. Moreover, in experiment [3], it took 43.9 nM to reach half-maximal inhibition (IC50).
